Source: patent US10280167B2, “Purine derivatives for the treatment of viral infections” (JANSSEN SCIENCES IRELAND UC, priority 2011, dated 2019)
Read-outs that look alike come from different tables or passages of the source.

What was measured:
Format in all cases: cell-based
[1] = molecular target: human TLR7 (Homo sapiens (Human), UniProt Q9NYK1); experiment: Reporter assay for TLR7 activity, HEK293 transiently transfected with wild type TLR7 and NFκB-luc; details: lowest effective concentration; 48 h transfection
Sequence of human TLR7 (Q9NYK1 27-1049): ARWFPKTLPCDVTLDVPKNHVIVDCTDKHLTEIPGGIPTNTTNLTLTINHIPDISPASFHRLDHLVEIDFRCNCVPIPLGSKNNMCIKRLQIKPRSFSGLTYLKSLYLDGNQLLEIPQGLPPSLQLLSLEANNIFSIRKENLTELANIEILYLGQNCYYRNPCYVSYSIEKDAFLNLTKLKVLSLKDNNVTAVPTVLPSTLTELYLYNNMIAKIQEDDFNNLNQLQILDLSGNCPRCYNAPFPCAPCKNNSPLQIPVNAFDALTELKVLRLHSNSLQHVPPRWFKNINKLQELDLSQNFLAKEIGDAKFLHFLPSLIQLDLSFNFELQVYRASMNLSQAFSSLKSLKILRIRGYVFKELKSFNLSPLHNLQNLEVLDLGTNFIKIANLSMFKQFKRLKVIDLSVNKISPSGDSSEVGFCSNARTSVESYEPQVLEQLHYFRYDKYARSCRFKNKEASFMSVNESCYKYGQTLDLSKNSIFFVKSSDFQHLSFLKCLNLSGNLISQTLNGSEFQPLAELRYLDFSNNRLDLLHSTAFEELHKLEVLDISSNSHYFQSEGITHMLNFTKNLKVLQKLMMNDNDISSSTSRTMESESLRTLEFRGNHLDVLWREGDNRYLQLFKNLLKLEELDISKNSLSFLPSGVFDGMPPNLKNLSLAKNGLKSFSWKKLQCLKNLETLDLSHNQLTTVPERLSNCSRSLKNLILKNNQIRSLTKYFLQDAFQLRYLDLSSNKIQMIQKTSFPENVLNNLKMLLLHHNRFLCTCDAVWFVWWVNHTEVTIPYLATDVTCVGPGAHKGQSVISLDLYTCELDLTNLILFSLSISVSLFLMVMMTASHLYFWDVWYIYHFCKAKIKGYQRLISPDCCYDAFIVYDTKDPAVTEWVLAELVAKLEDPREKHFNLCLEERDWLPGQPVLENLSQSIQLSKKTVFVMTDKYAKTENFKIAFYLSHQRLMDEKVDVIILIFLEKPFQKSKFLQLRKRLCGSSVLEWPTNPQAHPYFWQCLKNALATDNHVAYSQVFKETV

[2] = test system: HEK-ISRE-luc cells with conditioned media from PBMC; experiment: Interferon production in human PBMC (PBMC HEK-ISRE-luc LEC); details: for minimal effective concentration: Homo sapiens, PBMC, read-out: PBMC HEK-ISRE-luc (LEC)
Method: Measurement of Interferon Production in Human PBMC (PBMC HEK-ISRE-Luc LEC)
Activation of human TLR7 results in robust production of interferon by plasmacytoid dendritic cells present in human blood. The potential of compounds to induce interferon was evaluated by determination of interferon in the conditioned media from peripheral blood mononuclear cells (PBMC). The presence of interferon in the samples was determined, using an interferon reporter cell line stably expressing an interferon-stimulated responsive elements (ISRE)-luc reporter construct. The ISRE element with sequence GAAACTGAAACT (SEQ ID NO: 1) is highly responsive to the STAT1-STAT2-IRF9 transcription factor, which becomes activated upon binding of IFN-I to the IFN receptor. Briefly, PBMCs were prepared from buffy coats of at least two donors using a standard Ficoll centrifugation protocol. Isolated PBMCs were resuspended in RPMI medium supplemented with 10% human AB serum and 2×10^5 cells/well were dispensed into 384-well plates containing compounds (70 μL total volume). After overnight incubation of the PBMCs with the compounds, 10 μL of supernatant was transferred to 384-well plates containing 5×10^3 HEK-ISRE-luc cells/well in 30 μL (plated the day before). Following 24 hours of incubation, activation of the ISRE elements was measured by assaying luciferase activity using 40 μL/well Steady Lite Plus substrate (Perkin Elmer) and measured with ViewLux ultraHTS microplate imager (Perkin Elmer). The stimulating activity of each compound on the HEK-ISRE-luc cells was reported as LEC. The LEC in turn indicates the degree of ISRE activation on transfer of a defined amount of PBMC culture medium.
Recombinant interferon alfa-2a (Roferon-A) was used as a standard control compound.

[3] = test system: Huh-7 luc/neo HCV replicon cells with conditioned media from PBMC; experiment: Interferon production in human PBMC (PBMC-HUH7_EC50), HCV replicon readout with conditioned media; details: concentration applied to PBMCs giving 50% reduction of replicon luciferase activity
Method: Measurement of Interferon Production in Human PBMC (PBMC-HUH7_EC50)
Activation of human TLR7 results in robust production of interferon by plasmacytoid dendritic cells present in human blood. The potential of compounds to induce interferon was evaluated by looking at the antiviral activity in the HCV replicon system upon incubation with conditioned media from peripheral blood mononuclear cells (PBMC). The HCV replicon assay is based on a bicistronic expression construct, as described by Lohmann et al. (Science (1999) 285: 110-113; Journal of Virology (2003) 77: 3007-15 3019) with modifications described by Krieger et al. (Journal of Virology (2001) 75: 4614-4624). The assay utilized the stably transfected cell line Huh-7 luc/neo harboring an RNA encoding a bicistronic expression construct comprising the wild type NS3-NS5B regions of HCV type 1b translated from an Internal Ribosome Entry Site (IRES) from encephalomyocarditis virus (EMCV), preceded by a reporter gene (Firefly-luciferase) and a selectable marker gene (neoR, neomycine phosphotransferase). The construct is flanked by 5′ and 3′ NTRs (non-translated regions) from HCV type 1b. Continued culture of the replicon cells in the presence of G418 (neoR) is dependent on the replication of the HCV RNA. The stably transfected replicon cells that replicate HCV RNA autonomously and to high levels, encoding inter alia luciferase, were used for profiling of the conditioned cell culture media. Briefly, PBMCs were prepared from buffy coats of at least two donors using a standard Ficoll centrifugation protocol. Isolated PBMCs were resuspended in RPMI medium supplemented with 10% human AB serum and 2×10^5 cells/well were dispensed into 384-well plates containing compounds (70 μL total volume). After overnight incubation, […] was transferred to 384-well plates containing 2.2×10^3 replicon cells/well in 30 μL (plated the day before). Following 24 hours of incubation, replication was measured by assaying luciferase activity using 40 μL/well Steady Lite Plus substrate (Perkin Elmer) and measured with ViewLux ultraHTS microplate imager (Perkin Elmer). The inhibitory activity of each compound on the Huh7-luc/neo cells were reported as EC50 values, defined as the compound concentration applied to the PBMCs resulting in a 50% reduction of luciferase activity which in turn indicates the degree of replication of the replicon RNA on transfer of a defined amount of PBMC culture medium. Recombinant interferon α-2a (Roferon-A) was used as a standard control compound.

[4] = test system: human TLR7 dIRR2 mutant; experiment: Reporter assay for TLR7 activity, HEK293 transfected with mutant TLR7 (dIRR2 deletion) and NFκB-luc; details: lowest effective concentration; 48 h transfection

| SMILES | TLR7-wt_LEC 48 h [1] | minimal effective concentration ([2]; lowest effective concentration) | EC50 ([3]; Homo sapiens, Huh-7) | TLR7-dIRR2_LEC 48 h [4] | minimal effective concentration [2] | EC50 [3] | PBMC HEK-ISRE-luc (LEC) ([2]; lowest effective concentration) |
| --- | --- | --- | --- | --- | --- | --- | --- |
| Nc1nc(-c2ccn[nH]2)nc2c1[nH]c(=O)n2Cc1cn2ccccc2n1 [Compound 43] | 0.50 µM | 0.15 µM | – | – | – | – | – |
| COCCc1nnc(-c2nc(N)c3[nH]c(=O)n(Cc4ccccc4)c3n2)o1 [Compound 34] | >25 µM | 0.49 µM | 0.69 µM | 1.21 µM | – | – | – |
| Cl.Nc1nc(-n2cccn2)nc2c1[nH]c(=O)n2Cc1cccc(CP(=O)(O)O)c1 [Compound 41] | 0.03 µM | 0.4 µM | – | – | – | – | – |
| Cc1nc(-c2nc(N)c3[nH]c(=O)n(Cc4ccccc4)c3n2)[nH]c1C [Compound 7] | >25 µM | 0.88 µM | 0.64 µM | 1.46 µM | – | – | – |
| Nc1nc(-c2ncc[nH]2)nc2c1[nH]c(=O)n2CC1CCOCC1 [Compound 63] | >25 µM | 4.39 µM | 6.72 µM | 2.58 µM | – | – | – |
| Cc1ccc(Cn2c(=O)[nH]c3c(N)nc(-n4cccn4)nc32)cn1 [Compound 50] | 0.03 µM | 0.01 µM | – | – | – | – | – |
| Nc1nc(-c2ncc[nH]2)nc2c1[nH]c(=O)n2Cc1cccc(C(=O)N2CCCC2)c1 [Compound 55] | – | 1.16 µM | 1.27 µM | 0.06 µM | – | – | – |
| Cc1c[nH]c(-c2nc(N)c3[nH]c(=O)n(Cc4ccccc4)c3n2)n1 [Compound 8] | 5.91 µM | 0.25 µM | 0.17 µM | 0.17 µM | – | – | – |
| Cc1ccc(Cn2c(=O)[nH]c3c(N)nc(-c4ncc[nH]4)nc32)cn1 [Compound 9] | 0.88 µM | 0.03 µM | 0.05 µM | 0.07 µM | – | – | – |
| CCOP(=O)(Cc1cccc(Cn2c(=O)[nH]c3c(N)nc(-n4cccn4)nc32)c1)OCC [Compound 40] | 0.03 µM | – | – | – | 0.01 µM | – | – |
| Nc1nc(-c2cnco2)nc2c1[nH]c(=O)n2Cc1ccccc1 [Compound 32] | 6.5 µM | 0.97 µM | 1.51 µM | 0.97 µM | – | – | – |
| Nc1nc(-c2ccn[nH]2)nc2c1[nH]c(=O)n2Cc1ccccc1 [Compound 23] | 0.23 µM | 0.12 µM | 0.13 µM | 0.007 µM | – | – | – |
| Nc1nc(-c2ncc[nH]2)nc2c1[nH]c(=O)n2Cc1cccc(CN2CCCC2)c1 [Compound 25] | 2.46 µM | 0.007 µM | 0.006 µM | 0.39 µM | – | – | – |
| Cc1cnn(-c2nc(N)c3[nH]c(=O)n(Cc4ccccc4)c3n2)c1 [Compound 35] | 0.36 µM | 0.1 µM | 0.17 µM | 0.033 µM | – | – | – |
| CC(C)c1c[nH]c(-c2nc(N)c3[nH]c(=O)n(Cc4ccccc4)c3n2)n1 [Compound 29] | – | 0.82 µM | 1.66 µM | 1.58 µM | – | – | – |
| Nc1nc(-c2nc(C3CC3)c[nH]2)nc2c1[nH]c(=O)n2Cc1ccc2c(c1)CNCC2 [Compound 60] | >25 µM | 0.019 µM | 0.034 µM | 1.25 µM | – | – | – |
| CN1CCN(CCCCCn2c(=O)[nH]c3c(N)nc(-c4ncc[nH]4)nc32)CC1 [Compound 61] | >25 µM | – | – | 9.73 µM | – | 1.34 µM | 0.95 µM |
| Nc1nc(-c2nc(C3CC3)c[nH]2)nc2c1[nH]c(=O)n2CCCCCCN1CCCC1 [Compound 62] | 21.2 µM | 0.72 µM | 0.7 µM | >25 µM | – | – | – |

| SMILES | TLR7-wt_LEC 48 h [1] | minimal effective concentration ([2]; lowest effective concentration) | EC50 ([3]; Homo sapiens, Huh-7) | TLR7-dIRR2_LEC 48 h [4] | minimal effective concentration [2] | EC50 [3] | PBMC HEK-ISRE-luc (LEC) ([2]; lowest effective concentration) |
| --- | --- | --- | --- | --- | --- | --- | --- |
| COc1ccnc(Cn2c(=O)[nH]c3c(N)nc(-n4cccn4)nc32)c1OC [Compound 49] | 0.31 µM | 0.06 µM | – | – | – | – | – |
| Nc1nc(-c2nccn2CCO)nc2c1[nH]c(=O)n2Cc1ccccc1 [Compound 27] | 6.03 µM | 0.43 µM | 0.8 µM | 0.63 µM | – | – | – |
| Nc1nc(-c2ncc[nH]2)nc2c1[nH]c(=O)n2Cc1ccc2c(c1)CNCC2 [Compound 24] | 1.81 µM | 0.03 µM | 0.046 µM | 0.11 µM | – | – | – |
| Nc1nc(-c2nc(C(F)(F)F)c[nH]2)nc2c1[nH]c(=O)n2Cc1ccccc1 [Compound 31] | 23.23 µM | 2.2 µM | 1.3 µM | 0.51 µM | – | – | – |
| Nc1nc(-n2cccn2)nc2c1[nH]c(=O)n2Cc1cn2ccccc2n1 [Compound 48] | 0.01 µM | 0.01 µM | – | – | – | – | – |
| COC(=O)COc1ccc(Cn2c(=O)[nH]c3c(N)nc(-c4ncc[nH]4)nc32)cn1 [Compound 57] | 0.44 µM | 1.38 µM | 1.21 µM | 0.06 µM | – | – | – |
| Nc1nc(-c2ccn[nH]2)nc2c1[nH]c(=O)n2Cc1cccc(CO)c1 [Compound 46] | 0.21 µM | 0.03 µM | – | – | – | – | – |
| CCOP(=O)(CCCn1ccnc1-c1nc(N)c2[nH]c(=O)n(Cc3ccccc3)c2n1)OCC [Compound 47] | 14.12 µM | – | – | – | 1.64 µM | – | – |
| Nc1nc(-c2ccn[nH]2)nc2c1[nH]c(=O)n2Cc1cccc(C(=O)O)c1 [Compound 45] | 0.58 µM | 1.37 µM | – | – | – | – | – |
| COC(=O)c1cccc(Cn2c(=O)[nH]c3c(N)nc(-c4ccn[nH]4)nc32)c1 [Compound 44] | 0.10 µM | 0.04 µM | – | – | – | – | – |
| Nc1nc(-c2ccn(CCO)n2)nc2c1[nH]c(=O)n2Cc1ccccc1 [Compound 52] | 4.42 µM | 0.42 µM | – | 0.41 µM | – | – | – |
| CCc1c[nH]c(-c2nc(N)c3[nH]c(=O)n(Cc4ccccc4)c3n2)n1 [Compound 30] | 12.71 µM | 0.12 µM | 0.17 µM | 0.14 µM | – | – | – |
| COC(=O)c1cccc(Cn2c(=O)[nH]c3c(N)nc(-n4cccn4)nc32)c1 [Compound 37] | 0.05 µM | 0.01 µM | – | – | – | – | – |
| Cc1cn[nH]c1-c1nc(N)c2[nH]c(=O)n(Cc3ccccc3)c2n1 [Compound 53] | 3.17 µM | – | 0.76 µM | 0.36 µM | – | – | – |
| Nc1nc(-n2cccn2)nc2c1[nH]c(=O)n2Cc1cccc(C(=O)O)c1 [Compound 38] | 0.38 µM | > 25 µM | – | – | – | – | – |
| Nc1nc(-c2cc(C3CC3)n[nH]2)nc2c1[nH]c(=O)n2Cc1ccccc1 [Compound 51] | 0.16 µM | 0.17 µM | – | – | – | – | – |
| Nc1nc(-n2cccn2)nc2c1[nH]c(=O)n2Cc1cccc(CO)c1 [Compound 39] | 0.05 µM | 0.01 µM | – | – | – | – | – |
